Results taken from US20260216141A1, “NECROSIS INHIBITOR” (LINKGEVITY LIMITED, priority 2023, published 2026).
Entries after “also recorded” stand apart in the source; their conditions may differ.

Experiments:
Hepg2s spheroids = Hepg2s spheroids made by hanging drop technique, necrotic core formation; assay type: cell-based, human
Description: Multi-cellular spheroids were prepared using a hanging drop method. A stock solution of methylcellulose (MC) was prepared by dissolving 1.2 g of MC powder (4000 cP, Sigma-Aldrich) in 100 ml of DMEM. The solution was magnetically stirred overnight at 4° C. and subsequently centrifuged at 4,000 g for 3 hrs. HepG2s cells were re-suspended in cell medium containing 20% MC stock solution at a concentration of 20,000 cells per 50 μL spheroid. 50 μL drops were subsequently pipetted onto a non-adherent petri dish (Greiner) and, replacing the lid, the dish was turned upside-down and incubated overnight at 37° C. Multi-cellular spheroids were harvested individually with a wide bore pipette or collectively by adding 5 mL cell medium to the dish, collecting and centrifuging the suspension at 300 g for 5 min and resuspending the spheroids in cell medium. Spheroids were then cultured for 5 days in 48 well plates containing 2.5% agarose gel and 400 μl cell medium. EGTA was added at 0 and 2500 μM to both the spheroid pre-cursor solution and the cell culture medium. At day 3 and day 5 the spheroids were imaged and assessed.
Next, 3D cell culture was employed using Hepg2 cells and a standard hanging drop protocol of spheroid production. […] Necrotic cores disrupt physiology, and a challenge is vasculature formation faster than necrotic core formation. […]

[1] = system: mouse organs (heart, brain, spleen organotypic slices); test: Mouse organotypic slices hypoxia stress, PI/DAPI staining; assay type: cell-based; conditions: 2500 μM EGTA during stress, hypoxia 2.5 hrs in N2 gas bubbled buffer
Text: For organotypic cultures, sagittal hippocampal brainslices were taken from wild type mice. Following decapitation, all organs were quickly removed, placed in ice-cold buffer (artificial cerebrospinal fluid (ACSF) [in mmol/L]: NaCl 125, KCl 2.4, NaHCO326, NaH2PO4 1.25, glucose 25, CaCl2 2 [0.5 mmol/L for dissection], MgCl2 1 [5 mmol/L for dissection]; bubbled with carbogen) for brain, and for all other organs Ringers buffer. For brain, to reduce the rate of cell death most dissections were carried out with high-magnesium (5 mmol/L)/low-calcium (0.5 mmol/L) ACSF. The brain was hemisected and a section was cut away by hand that was approximately 100° from the midline surface. The hemispheres were then mounted with superglue on to a slicing stage and 300 μm hippocampal slices were cut with a vibroslicer and transferred to an incubating chamber with circulating ACSF (bubbled with carbogen). All other organs were treated similarly but Ringer's buffer was used instead of ACSF. For the heart and spleen, cross sectional slices going fully across the organ were taken. The slices were incubated at 35° C. for approximately 1 hrs before the incubator was switched off and the bath was allowed to cool to room temperature. […]

D. melanogaster = test: Drosophila cold/freeze stress survival; assay type: in vivo, Drosophila melanogaster; conditions: fed 12 hrs food containing 2500 μM EGTA; 0 degrees for 10 min
Description: Animals were under standard culture conditions. On day 1 of adulthood, they were starved for 8 hrs, then fed 12 hrs+/−EGTA 2500 μM. Following this, the animals were moved to 0° C. for 10 min and then recovered and survival measured.
Fruit flies, Drosophila melanogaster, were likewise exposed to heat and cold stress. […]. Flies were starved for a short period of 8 hrs and then fed for 12 hrs yeast containing high doses of a calcium chelating agent to ensure an adequate amount of drug entered the animals; doses used were: 0 or 2500 μM EGTA. This was followed by cold/freeze stress, where animals were placed at 0° C. for 10 min, and then animals were scored for survival every 12 hrs. […] Thus, like with single celled yeast and bacteria and C. elegans, a full organism level protective effect of blocking the predicted weak spots associated with cell death necrosis was also seen in fruit flies.

E. coli = E. coli oxidative stress, colony forming units; assay type: cell-based; conditions: EGTA 2500 μM during stress; 50 min 1 mM H2O2
Description: 2 loops of E. coli stationary-phase bacterial cells collected post seeding (80 μL from a culture grown for 12 hrs) on agar plates containing bactopeptone and allowing to grow for 24 hrs was collected in buffer. Bacterial cells were then stressed for 50 min using 1 mM hydrogen peroxide. Treatment is EGTA 2500 μM during stress. Cells were then washed in buffer. Following stress, bacteria was washed in buffer and then diluted 1:500 in MilliQ water and seeded onto agar plates containing bactopeptone and left at 37° C. overnight. This was followed by counting colony forming units (CFU) counted. Three repeats were performed.
Bacteria, E. coli, and yeast, S. pombi, were exposed to toxin hydrogen peroxide stress (stress is for 50 min 1 mM H2O2) with or without high doses (2500 μM; c.f. FIG. 2) of the chelating agent EGTA (inhibitor of the predicted weak spot of loss of calcium ion homeostasis in the cytosol) delivered during the stress.
Following stress, bacteria cells were then placed on agar plates and allowed to grow at 37° C. overnight and colony forming units (CFU) were then counted.

Structure (SMILES): O=C(O)CN(CCOCCOCCN(CC(=O)O)CC(=O)O)CC(=O)O [EGTA, ethylene glycol-bis(β-aminoethyl ether)-N,N,N′,N′-tetraacetic acid]
- necrotic core formation (Hepg2s spheroids; hanging drop Hepg2s spheroids, 2500 μM EGTA or 5000 μM EGTA, 5 days): no necrotic core even after 5 days
- necrotic core formation (Hepg2s spheroids; hanging drop Hepg2 spheroids, 20,000 cells, EGTA at 250 and 500 mM, day 5): no necrotic cores being visible
- % of necrotic cells (PI stain) relative to all cells (DAPI stain) [1]: necrosis cell death is prevented; also recorded: marked improvement in all 3 tissue types
- D. melanogaster death / survival following cold/freeze stress (D. melanogaster): death is prevented; also recorded: significant protective effect
- E. coli death / colony forming units (CFU) following oxidative stress (E. coli): death is prevented
